Assay results reported in ChEMBL document CHEMBL1201862, “PubChem BioAssay data set” (2004).
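Compound exposure: 48 hours, 5 concentrations, 96-well plates. GI50: concentration for 50% inhibition of growth.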 Activity calls are given as the source filed them. Rule as the data show it: active = GI50 up to about 1.1 µM and inactive = higher.

Tests used:
Test in all cases: NCI anticancer screen, dose series, 48 h
[1] = test system: HOP-62
[2] = test system: DU-145
[3] = test system: MDA-N
[4] = test system: HCT-15
[5] = test system: SK-MEL-28
[6] = test system: NCI-H522
[7] = test system: A549
[8] = test system: NCI-H460
[9] = test system: HCT-116
[10] = test system: OVCAR-8
[11] = test system: SK-MEL-2
[12] = test system: EKVX
[13] = test system: TK-10
[14] = test system: SR
[15] = test system: CAKI-1
[16] = test system: NCI-H226
[17] = test system: KM12
[18] = test system: SK-OV-3
[19] = test system: SF-268
[20] = test system: K562
[21] = test system: A498
[22] = test system: HOP-92
[23] = test system: UACC-257
[24] = test system: SW-620
[25] = test system: SK-MEL-5
[26] = test system: HT-29
[27] = test system: BT-549
[28] = test system: SN12C
[29] = test system: M14
[30] = test system: OVCAR-5
[31] = test system: Hs-578T
[32] = test system: Malme-3M
[33] = test system: OVCAR-4
[34] = test system: MDA-MB-435
[35] = test system: RPMI-8226
[36] = test system: CCRF-CEM
[37] = test system: MCF7
[38] = test system: NCI/ADR-RES
[39] = test system: ACHN
[40] = test system: UACC-62
[41] = test system: IGROV-1
[42] = test system: PC-3
[43] = test system: HL-60
[44] = test system: LOX IMVI
[45] = test system: 786-0
[46] = test system: HCC 2998
[47] = test system: T47D
[48] = test system: SNB-75
[49] = test system: NCI-H23
[50] = test system: SNB-19
[51] = test system: U-251
[52] = test system: COLO 205
[53] = test system: MDA-MB-231
[54] = test system: OVCAR-3
[55] = test system: SF-295
[56] = test system: RXF 393
[57] = test system: MOLT-4
[58] = test system: UO-31
[59] = test system: SF-539

Compound: COC(=O)c1c(C)cccc1C1CN=NC12Cc1c(C)cccc1C2=O (centres undefined)
- GI50 [1]: > 100 µM (inactive)
- GI50 [2]: > 100 µM (inactive)
- GI50 [3]: > 100 µM (inactive)
- GI50 [4]: 88.1 µM
- GI50 [5]: > 100 µM (inactive)
- GI50 [6]: 24.9 µM (inactive)
- GI50 [7]: 82.6 µM (inactive)
- GI50 [8]: 97.3 µM (inactive)
- GI50 [9]: 68.7 µM (inactive)
- GI50 [10]: 44.7 µM (inactive)
- GI50 [11]: 99.3 µM (inactive)
- GI50 [12]: 24.8 µM (inactive)
- GI50 [13]: > 100 µM (inactive)
- GI50 [14]: > 100 µM (inactive)
- GI50 [15]: > 100 µM (inactive)
- GI50 [16]: > 100 µM (inactive)
- GI50 [17]: 46.6 µM (inactive)
- GI50 [18]: > 100 µM (inactive)
- GI50 [19]: > 100 µM (inactive)
- GI50 [20]: 37.2 µM (inactive)
- GI50 [21]: 37.8 µM (inactive)
- GI50 [22]: 19.9 µM (inactive)
- GI50 [23]: 43.4 µM (inactive)
- GI50 [24]: > 100 µM (inactive)
- GI50 [25]: 53 µM (inactive)
- GI50 [26]: 90.2 µM (inactive)
- GI50 [27]: > 100 µM (inactive)
- GI50 [28]: > 100 µM (inactive)
- GI50 [29]: 83.2 µM (inactive)
- GI50 [30]: > 100 µM (inactive)
- GI50 [31]: 80.2 µM (inactive)
- GI50 [32]: 91.4 µM (inactive)
- GI50 [33]: 35.7 µM (inactive)
- GI50 [34]: 39.8 µM (inactive)
- GI50 [35]: 46.5 µM (inactive)
- GI50 [36]: > 100 µM (inactive)
- GI50 [37]: 55.2 µM (inactive)
- GI50 [38]: 59.6 µM (inactive)
- GI50 [39]: 79.3 µM (inactive)
- GI50 [40]: 40.1 µM (inactive)
- GI50 [41]: > 100 µM (inactive)
- GI50 [42]: 37.2 µM (inactive)
- GI50 [43]: 34.9 µM (inactive)
- GI50 [44]: 50.9 µM (inactive)
- GI50 [45]: > 100 µM (inactive)
- GI50 [46]: 57.8 µM (inactive)
- GI50 [47]: 37.9 µM (inactive)
- GI50 [48]: 64.1 µM (inactive)
- GI50 [49]: 60 µM (inactive)
- GI50 [50]: > 100 µM (inactive)
- GI50 [51]: > 100 µM (inactive)
- GI50 [52]: 55.5 µM (inactive)
- GI50 [53]: 82.8 µM (inactive)
- GI50 [54]: 45.2 µM (inactive)
- GI50 [55]: 51.2 µM (inactive)
- GI50 [56]: > 100 µM (inactive)
- GI50 [57]: 37.4 µM (inactive)
- GI50 [58]: 24 µM (inactive)
- GI50 [59]: > 100 µM (inactive)

Compound: Cc1cc(S(=O)(=O)Nc2nnc3c(C(F)(F)F)cc(Cl)cn23)c(S)cc1Cl
- GI50 [1]: > 100 µM (inactive)
- GI50 [2]: > 100 µM (inactive)
- GI50 [3]: > 100 µM (inactive)
- GI50 [4]: > 100 µM
- GI50 [5]: > 100 µM (inactive)
- GI50 [6]: > 100 µM (inactive)
- GI50 [7]: > 100 µM (inactive)
- GI50 [8]: 45.3 µM (inactive)
- GI50 [9]: 57.9 µM (inactive)
- GI50 [10]: > 100 µM (inactive)
- GI50 [11]: 64.4 µM (inactive)
- GI50 [12]: > 100 µM (inactive)
- GI50 [13]: > 100 µM (inactive)
- GI50 [14]: 81.7 µM (inactive)
- GI50 [15]: 56.6 µM (inactive)
- GI50 [16]: > 100 µM (inactive)
- GI50 [17]: 94.8 µM (inactive)
- GI50 [18]: > 100 µM (inactive)
- GI50 [19]: > 100 µM (inactive)
- GI50 [20]: > 100 µM (inactive)
- GI50 [21]: > 100 µM (inactive)
- GI50 [22]: > 100 µM (inactive)
- GI50 [23]: > 100 µM (inactive)
- GI50 [24]: > 100 µM (inactive)
- GI50 [25]: > 100 µM (inactive)
- GI50 [26]: > 100 µM (inactive)
- GI50 [27]: > 100 µM (inactive)
- GI50 [28]: > 100 µM (inactive)
- GI50 [29]: 67.1 µM (inactive)
- GI50 [30]: > 100 µM (inactive)
- GI50 [31]: > 100 µM (inactive)
- GI50 [32]: > 100 µM (inactive)
- GI50 [33]: 40.3 µM (inactive)
- GI50 [34]: 76 µM (inactive)
- GI50 [35]: > 100 µM (inactive)
- GI50 [36]: > 100 µM (inactive)
- GI50 [37]: > 100 µM (inactive)
- GI50 [38]: > 100 µM (inactive)
- GI50 [39]: 48.2 µM (inactive)
- GI50 [40]: 41.5 µM (inactive)
- GI50 [41]: > 100 µM (inactive)
- GI50 [42]: > 100 µM (inactive)
- GI50 [43]: > 100 µM (inactive)
- GI50 [44]: > 100 µM (inactive)
- GI50 [45]: > 100 µM (inactive)
- GI50 [46]: > 100 µM (inactive)
- GI50 [47]: 70.5 µM (inactive)
- GI50 [48]: 90.8 µM (inactive)
- GI50 [50]: 38.2 µM (inactive)
- GI50 [51]: 46.6 µM (inactive)
- GI50 [52]: > 100 µM (inactive)
- GI50 [53]: > 100 µM (inactive)
- GI50 [54]: 89.5 µM (inactive)
- GI50 [56]: > 100 µM (inactive)
- GI50 [57]: 74 µM (inactive)
- GI50 [58]: 33 µM (inactive)
- GI50 [59]: > 100 µM (inactive)

Compound: CCOC(=O)[C@@H]1[C@@H]2NC(=O)N[C@@]1(C)Oc1ccccc12
- GI50 [1]: > 100 µM (inactive)
- GI50 [2]: > 100 µM (inactive)
- GI50 [3]: > 100 µM (inactive)
- GI50 [4]: > 100 µM
- GI50 [5]: > 100 µM (inactive)
- GI50 [6]: > 100 µM (inactive)
- GI50 [8]: > 100 µM (inactive)
- GI50 [9]: > 100 µM (inactive)
- GI50 [10]: > 100 µM (inactive)
- GI50 [11]: > 100 µM (inactive)
- GI50 [12]: > 100 µM (inactive)
- GI50 [13]: > 100 µM (inactive)
- GI50 [14]: > 100 µM (inactive)
- GI50 [15]: > 100 µM (inactive)
- GI50 [16]: > 100 µM (inactive)
- GI50 [17]: > 100 µM (inactive)
- GI50 [18]: > 100 µM (inactive)
- GI50 [19]: > 100 µM (inactive)
- GI50 [20]: > 100 µM (inactive)
- GI50 [21]: > 100 µM (inactive)
- GI50 [22]: > 100 µM (inactive)
- GI50 [23]: > 100 µM (inactive)
- GI50 [24]: > 100 µM (inactive)
- GI50 [25]: > 100 µM (inactive)
- GI50 [26]: > 100 µM (inactive)
- GI50 [27]: > 100 µM (inactive)
- GI50 [28]: > 100 µM (inactive)
- GI50 [29]: > 100 µM (inactive)
- GI50 [30]: > 100 µM (inactive)
- GI50 [31]: > 100 µM (inactive)
- GI50 [32]: > 100 µM (inactive)
- GI50 [33]: > 100 µM (inactive)
- GI50 [34]: > 100 µM (inactive)
- GI50 [35]: > 100 µM (inactive)
- GI50 [36]: > 100 µM (inactive)
- GI50 [37]: > 100 µM (inactive)
- GI50 [38]: > 100 µM (inactive)
- GI50 [39]: > 100 µM (inactive)
- GI50 [40]: > 100 µM (inactive)
- GI50 [41]: > 100 µM (inactive)
- GI50 [42]: > 100 µM (inactive)
- GI50 [43]: > 100 µM (inactive)
- GI50 [44]: > 100 µM (inactive)
- GI50 [45]: > 100 µM (inactive)
- GI50 [46]: > 100 µM (inactive)
- GI50 [47]: > 100 µM (inactive)
- GI50 [48]: > 100 µM (inactive)
- GI50 [49]: > 100 µM (inactive)
- GI50 [50]: > 100 µM (inactive)
- GI50 [51]: > 100 µM (inactive)
- GI50 [52]: > 100 µM (inactive)
- GI50 [53]: > 100 µM (inactive)
- GI50 [54]: > 100 µM (inactive)
- GI50 [55]: > 100 µM (inactive)
- GI50 [56]: > 100 µM (inactive)
- GI50 [57]: > 100 µM (inactive)
- GI50 [58]: > 100 µM (inactive)
- GI50 [59]: > 100 µM (inactive)
